Measured values reported in PubChem BioAssay AID1918936 (Molecular Pharmacology Branch, DTP, NCI, 2023).
Values joined by “and” are separate entries in the source; they are usually repeats but may differ in a detail not shown here. Equal entries are not always repeated. Blank lines part the entries; values can stand above or below the compound they belong to.

Test system: 349418-098-R-PDC complex spheroid viability
Assay: Anticancer human tumor 349418-098-R-PDC patient-derived lung adenocarcinoma cell line growth inhibition
Settings: for viability, T/C: stronger effect = lower value
Summary of the method: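 Multicellular complex spheroids of tumor cells with human endothelial cells (HUVEC) and mesenchymal stem cells; the LSD1 inhibitor iadademstat was combined with standard-of-care or investigational agents. Top concentration at or near clinical Cmax, half-log dilutions; final DMSO ≤0.25%.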

[1] = curve of first compound, second compound 0.1 µM
[2] = curve of first compound, second compound 0.316 µM
[3] = curve of first compound, second compound 1 µM
[4] = curve of first compound, second compound 3.16 µM
[5] = curve of first compound, second compound 10 µM
[6] = second compound 0.1 µM, first compound 0.00949 µM
[7] = second compound 0.1 µM, first compound 0.03 µM
[8] = second compound 0.1 µM, first compound 0.0949 µM
[9] = second compound 0.1 µM, first compound 0.3 µM
[10] = second compound 0.1 µM, first compound 0.949 µM
[11] = second compound 0.1 µM, first compound 3 µM
[12] = second compound 0.316 µM, first compound 0.00949 µM
[13] = second compound 0.316 µM, first compound 0.03 µM
[14] = second compound 0.316 µM, first compound 0.0949 µM
[15] = second compound 0.316 µM, first compound 0.3 µM
[16] = second compound 0.316 µM, first compound 0.949 µM
[17] = second compound 0.316 µM, first compound 3 µM
[18] = second compound 1 µM, first compound 0.00949 µM
[19] = second compound 1 µM, first compound 0.03 µM
[20] = second compound 1 µM, first compound 0.0949 µM
[21] = second compound 1 µM, first compound 0.3 µM
[22] = second compound 1 µM, first compound 0.949 µM
[23] = second compound 1 µM, first compound 3 µM
[24] = second compound 3.16 µM, first compound 0.00949 µM
[25] = second compound 3.16 µM, first compound 0.03 µM
[26] = second compound 3.16 µM, first compound 0.0949 µM
[27] = second compound 3.16 µM, first compound 0.3 µM
[28] = second compound 3.16 µM, first compound 0.949 µM
[29] = second compound 3.16 µM, first compound 3 µM
[30] = second compound 10 µM, first compound 0.00949 µM
[31] = second compound 10 µM, first compound 0.03 µM
[32] = second compound 10 µM, first compound 0.0949 µM
[33] = second compound 10 µM, first compound 0.3 µM
[34] = second compound 10 µM, first compound 0.949 µM
[35] = second compound 10 µM, first compound 3 µM
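Further: spheroids exposed to agents for seven days before readout.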
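Wherever viability, T/C is given: 100% = DMSO vehicle control wells.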

Structure (SMILES): CC1COCCN1c1cc(-c2ccnn2C)c2ccnc(-c3ccn[nH]3)c2n1 (configuration not stated) + NC1CCC(NC2CC2c2ccccc2)CC1
IC50 [1]: 13.7 nM
IC50 [2]: 16.1 nM
IC50 [3]: 11.4 nM
IC50 [4]: 9.65 nM
IC50 [5]: 8.1 nM
viability, T/C (second compound 0.1 µM, first compound 0.00316 µM): 91.5%
viability, T/C (second compound 0.1 µM, first compound 0.01 µM): 62.6%
viability, T/C (second compound 0.1 µM, first compound 0.0316 µM): 16.8%
viability, T/C (second compound 0.1 µM, first compound 0.1 µM): 9.57%
viability, T/C (second compound 0.1 µM, first compound 0.316 µM): 7.39%
viability, T/C (second compound 0.1 µM, first compound 1 µM): 5.98%
viability, T/C (second compound 0.316 µM, first compound 0.00316 µM): 108%
viability, T/C (second compound 0.316 µM, first compound 0.01 µM): 71.9%
viability, T/C (second compound 0.316 µM, first compound 0.0316 µM): 18.5%
viability, T/C (second compound 0.316 µM, first compound 0.1 µM): 9.43%
viability, T/C (second compound 0.316 µM, first compound 0.316 µM): 6.72%
viability, T/C (second compound 0.316 µM, first compound 1 µM): 6.47%
viability, T/C (second compound 1 µM, first compound 0.00316 µM): 98.5%
viability, T/C (second compound 1 µM, first compound 0.01 µM): 54.5%
viability, T/C (second compound 1 µM, first compound 0.0316 µM): 16.6%
viability, T/C (second compound 1 µM, first compound 0.1 µM): 9.69%
viability, T/C (second compound 1 µM, first compound 0.316 µM): 7.82%
viability, T/C (second compound 1 µM, first compound 1 µM): 5.98%
viability, T/C (second compound 3.16 µM, first compound 0.00316 µM): 98.1%
viability, T/C (second compound 3.16 µM, first compound 0.01 µM): 48.5%
viability, T/C (second compound 3.16 µM, first compound 0.0316 µM): 14.4%
viability, T/C (second compound 3.16 µM, first compound 0.1 µM): 8.55%
viability, T/C (second compound 3.16 µM, first compound 0.316 µM): 6.56%
viability, T/C (second compound 3.16 µM, first compound 1 µM): 5.96%
viability, T/C (second compound 10 µM, first compound 0.00316 µM): 90.7%
viability, T/C (second compound 10 µM, first compound 0.01 µM): 40.9%
viability, T/C (second compound 10 µM, first compound 0.0316 µM): 14.5%
viability, T/C (second compound 10 µM, first compound 0.1 µM): 7.6%
viability, T/C (second compound 10 µM, first compound 0.316 µM): 6.06%
viability, T/C (second compound 10 µM, first compound 1 µM): 5.03%

Structure (SMILES): O=C(C=Cc1cccc(S(=O)(=O)Nc2ccccc2)c1)NO + NC1CCC(NC2CC2c2ccccc2)CC1
IC50 [1]: 88.1 nM
IC50 [2]: 94.5 nM
IC50 [3]: 121 nM
IC50 [4]: 112 nM
IC50 [5]: 83.7 nM
viability, T/C [6]: 100%
viability, T/C [7]: 80.5%
viability, T/C [8]: 48.6%
viability, T/C [9]: 18.1%
viability, T/C [10]: 4.19%
viability, T/C [11]: 1.29%
viability, T/C [12]: 105%
viability, T/C [13]: 80.4%
viability, T/C [14]: 53.1%
viability, T/C [15]: 18.7%
viability, T/C [16]: 3.88%
viability, T/C [17]: 1.5%
viability, T/C [18]: 97.1%
viability, T/C [19]: 85.2%
viability, T/C [20]: 58.5%
viability, T/C [21]: 20.8%
viability, T/C [22]: 3.93%
viability, T/C [23]: 1.07%
viability, T/C [24]: 102%
viability, T/C [25]: 88.3%
viability, T/C [26]: 56.5%
viability, T/C [27]: 17%
viability, T/C [28]: 3.94%
viability, T/C [29]: 0.93%
viability, T/C [30]: 96.4%
viability, T/C [31]: 87.3%
viability, T/C [32]: 44.3%
viability, T/C [33]: 13.2%
viability, T/C [34]: 3.61%
viability, T/C [35]: 0.5%

IC50 (curve of compound): 2.16 nM and 2.74 nM
Structure (SMILES): CC[C@@]1(O)C(=O)OCc2c1cc1n(c2=O)Cc2cc3c(CN(C)C)c(O)ccc3nc2-1
viability, T/C (compound 0.000316 µM): 105% and 95.3%
viability, T/C (compound 0.001 µM): 84.7% and 94.4%
viability, T/C (compound 0.00316 µM): 32.5% and 43.5%
viability, T/C (compound 0.01 µM): 10.2% and 9.41%
viability, T/C (compound 0.0316 µM): 6.03% and 5.47%
viability, T/C (compound 0.1 µM): 3.25% and 3.14%

Structure (SMILES): NS(=O)(=O)OCC1CC(n2ccc3c(NC4CCc5ccccc54)ncnc32)CC1O (configuration not stated) + NC1CC1c1ccc(-c2cccc(O)c2)cc1
IC50 [1]: 64.1 nM
IC50 [2]: 59.1 nM
IC50 [3]: 59.6 nM
IC50 [4]: 60.7 nM
IC50 [5]: 38 nM
viability, T/C [6]: 116%
viability, T/C [7]: 86.6%
viability, T/C [8]: 30.5%
viability, T/C [9]: 11.9%
viability, T/C [10]: 5.29%
viability, T/C [11]: 4.99%
viability, T/C [12]: 120%
viability, T/C [13]: 82.3%
viability, T/C [14]: 26.6%
viability, T/C [15]: 12.4%
viability, T/C [16]: 5.84%
viability, T/C [17]: 4.12%
viability, T/C [18]: 124%
viability, T/C [19]: 77%
viability, T/C [20]: 31.9%
viability, T/C [21]: 11.3%
viability, T/C [22]: 5.2%
viability, T/C [23]: 4.27%
viability, T/C [24]: 124%
viability, T/C [25]: 81.6%
viability, T/C [26]: 29.2%
viability, T/C [27]: 12.2%
viability, T/C [28]: 5.08%
viability, T/C [29]: 4.44%
viability, T/C [30]: 106%
viability, T/C [31]: 55.5%
viability, T/C [32]: 28.1%
viability, T/C [33]: 9.97%
viability, T/C [34]: 4.94%
viability, T/C [35]: 2.73%
